Usually IC50 stands for the concentration that gives 50% inhibition. A high value points to weaker potency.

Chain of HDM2 (Q00987 17-125): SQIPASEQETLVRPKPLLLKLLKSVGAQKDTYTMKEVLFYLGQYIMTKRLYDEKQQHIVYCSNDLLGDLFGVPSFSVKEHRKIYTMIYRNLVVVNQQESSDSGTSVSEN

The target in the first experiment is HDM2 (truncated, residues 17 to 125, containing p53 binding surface) (Homo sapiens (Human), UniProt Q00987). Kind of experiment: HDM2 FRET assay (inhibition of binding of FITC labeled p53-site peptide to HDM2). Particulars: Table 18. The text has this: IC50 DETERMINATIONS: Dose-response curves were plotted from the inhibition data, from 10 point serial dilutions of inhibitory compounds. Concentration of compound was plotted against em520/Cem495 ratio signal. To generate IC50 values, the dose-response curves were fitted to a standard sigmoidal curve and IC50 values were derived by nonlinear regression analysis.
Chain of HDM2 (truncated, residues 17 to 125, containing p53 binding surface) (Q00987 17-125): as above
In turn, `CC(C)c1ccnc(-c2nc3nc(-c4noc(=O)[nH]4)nc(N[C@H](C)C4CCC4)c3n2C[C@@H]2CC[C@@H](C)C(F)(F)C2)c1` (stereo in doubt) [Example 18.11, 3-(6-(((R)-1-cyclobutylethyl)amino)-7-((trans-3,3-difluoro-4-methylcyclohexyl)methyl)-8-(4-isopropylpyridin-2-yl)-7H-purin-2-yl)-1,2,4-oxadiazol-5(4H)-one] returned an IC50 of 2.79 nM.

Still in this experiment, the particulars now being: Table 23.
The compound `COC(C)(c1ccccn1)c1nc2nc(-c3n[nH]c(=O)o3)nc(-c3cccc(Cl)c3)c2n1C[C@H]1CC[C@H](C)CC1` (single isomer, unassigned) [Example 23.55, 5-{6-(3-chlorophenyl)-8-(1-methoxy-1-pyridin-2-ylethyl)-7-[(trans-4-methylcyclohexyl)methyl]-7H-purin-2-yl}-1,3,4-oxadiazol-2(3H)-one] returned an IC50 of 4.26 nM.
The same measure, in the same setting: in the case of `CC(F)(c1c(F)cccc1F)c1nc2nc(-c3noc(=O)[nH]3)nc(-c3cncc(Cl)c3)c2n1C[C@H]1CC[C@H](C)CC1` (single isomer, unassigned) [Example 23.68, 3-{6-(5-chloropyridin-3-yl)-8-[1-(2,6-difluorophenyl)-1-fluoroethyl]-7-[(trans-4-methylcyclohexyl)methyl]-7H-purin-2-yl}-1,2,4-oxadiazol-5(4H)-one] it was 4.26 nM.
Same read-out and setting: in the case of `CC(F)(c1c(F)cccc1F)c1nc2nc(-c3noc(=O)[nH]3)nc(-c3cncc(Cl)c3)c2n1C[C@H]1CC[C@H](C)CC1` (single isomer, unassigned) [Example 23.69, 3-{6-(5-chloropyridin-3-yl)-8-[1-(2,6-difluorophenyl)-1-fluoroethyl]-7-[(trans-4-methylcyclohexyl)methyl]-7H-purin-2-yl}-1,2,4-oxadiazol-5(4H)-one] it was 0.156 nM; in that of `COC(C)(c1cccc(Cl)c1F)c1nc2nc(-c3n[nH]c(=O)o3)nc(-c3cncc(Cl)c3)c2n1C[C@H]1CC[C@H](C)CC1` (single isomer, unassigned) [Example 23.73, 5-{8-[1-(3-chloro-2-fluorophenyl)-1-methoxyethyl]-6-(5-chloropyridin-3-yl)-7-[(trans-4-methylcyclohexyl)methyl]-7H-purin-2-yl}-1,3,4-oxadiazol-2(3H)-one], 0.623 nM.
On the same count and under the same terms, the value for `COC(C)(c1cccc(Cl)c1F)c1nc2nc(-c3n[nH]c(=O)o3)nc(-c3cncc(Cl)c3)c2n1C[C@H]1CC[C@H](C)CC1` (single isomer, unassigned) [Example 23.74, 5-{8-[1-(3-chloro-2-fluorophenyl)-1-methoxyethyl]-6-(5-chloropyridin-3-yl)-7-[(trans-4-methylcyclohexyl)methyl]-7H-purin-2-yl}-1,3,4-oxadiazol-2(3H)-one] was 17.8 nM.
`CC(F)(c1c(F)cccc1F)c1nc2nc(-c3n[nH]c(=O)o3)nc(-c3cncc(Cl)c3)c2n1C[C@H]1CC[C@H](C)CC1` (single isomer, unassigned) [Example 23.80, 5-{6-(5-chloropyridin-3-yl)-8-[1-(2,6-difluorophenyl)-1-fluoroethyl]-7-[(trans-4-methylcyclohexyl)methyl]-7H-purin-2-yl}-1,3,4-oxadiazol-2(3H)-one] came in with an IC50 of 10.7 nM.
On the same count and under the same terms, in the case of `CC(F)(c1c(F)cccc1F)c1nc2nc(-c3n[nH]c(=O)o3)nc(-c3cncc(Cl)c3)c2n1C[C@H]1CC[C@H](C)CC1` (single isomer, unassigned) [Example 23.81, 5-{6-(5-chloropyridin-3-yl)-8-[1-(2,6-difluorophenyl)-1-fluoroethyl]-7-[(trans-4-methylcyclohexyl)methyl]-7H-purin-2-yl}-1,3,4-oxadiazol-2(3H)-one] it was 0.289 nM.
In turn, `CC1CCCCC1(F)c1nc2nc(-c3n[nH]c(=O)o3)nc(-c3cncc(Cl)c3)c2n1C[C@H]1CC[C@H](C)CC1` (single isomer, unassigned) [Example 23.82, 5-{6-(5-chloropyridin-3-yl)-8-(1-fluoro-2-methylcyclohexyl)-7-[(trans-4-methylcyclohexyl)methyl]-7H-purin-2-yl}-1,3,4-oxadiazol-2(3H)-one] registered an IC50 of 7.63 nM. This IC50 lies about 26-fold higher than the previous one.
On the same count and under the same terms, the value for `CC1CCCCC1(F)c1nc2nc(-c3n[nH]c(=O)o3)nc(-c3cncc(Cl)c3)c2n1C[C@H]1CC[C@H](C)CC1` (single isomer, unassigned) [Example 23.83, 5-{6-(5-chloropyridin-3-yl)-8-(1-fluoro-2-methylcyclohexyl)-7-[(trans-4-methylcyclohexyl)methyl]-7H-purin-2-yl}-1,3,4-oxadiazol-2(3H)-one] was 6.31 nM; that for `CC(F)(c1ncccc1F)c1nc2nc(-c3n[nH]c(=O)o3)nc(-c3cncc(Cl)c3)c2n1C[C@H]1CC[C@H](C)CC1` (single isomer, unassigned) [Example 23.84, 5-{6-(5-chloropyridin-3-yl)-8-[1-fluoro-1-(3-fluoropyridin-2-yl)ethyl]-7-[(trans-4-methylcyclohexyl)methyl]-7H-purin-2-yl}-1,3,4-oxadiazol-2(3H)-one] was 16.5 nM.
On to `CC(F)(c1ncccc1F)c1nc2nc(-c3n[nH]c(=O)o3)nc(-c3cncc(Cl)c3)c2n1C[C@H]1CC[C@H](C)CC1` (single isomer, unassigned) [Example 23.85, 5-{6-(5-chloropyridin-3-yl)-8-[1-fluoro-1-(3-fluoropyridin-2-yl)ethyl]-7-[(trans-4-methylcyclohexyl)methyl]-7H-purin-2-yl}-1,3,4-oxadiazol-2(3H)-one], for which the IC50 is 0.359 nM.
The same measure, in the same setting: in the case of `COC(C)(c1ncccc1F)c1nc2nc(-c3n[nH]c(=O)o3)nc(-c3cncc(Cl)c3)c2n1C[C@H]1CC[C@H](C)CC1` (single isomer, unassigned) [Example 23.86, 5-{6-(5-chloropyridin-3-yl)-8-[1-(3-fluoropyridin-2-yl)-1-methoxyethyl]-7-[(trans-4-methylcyclohexyl)methyl]-7H-purin-2-yl}-1,3,4-oxadiazol-2(3H)-one] it was 0.675 nM.
Still for that read-out and setting: in the case of `COC(C)(c1ncccc1F)c1nc2nc(-c3n[nH]c(=O)o3)nc(-c3cncc(Cl)c3)c2n1C[C@H]1CC[C@H](C)CC1` (single isomer, unassigned) [Example 23.87, 5-{6-(5-chloropyridin-3-yl)-8-[1-(3-fluoropyridin-2-yl)-1-methoxyethyl]-7-[(trans-4-methylcyclohexyl)methyl]-7H-purin-2-yl}-1,3,4-oxadiazol-2(3H)-one] it was 19.6 nM; in that of `COC(C)(c1c(F)cccc1F)c1nc2nc(-c3n[nH]c(=O)o3)nc(-c3cncc(Cl)c3)c2n1C[C@H]1CC[C@H](C)CC1` (single isomer, unassigned) [Example 23.88, 5-{6-(5-chloropyridin-3-yl)-8-[1-(2,6-difluorophenyl)-1-methoxyethyl]-7-[(trans-4-methylcyclohexyl)methyl]-7H-purin-2-yl}-1,3,4-oxadiazol-2(3H)-one], 0.598 nM.
Same read-out and setting: the value for `COC(C)(c1c(F)cccc1F)c1nc2nc(-c3n[nH]c(=O)o3)nc(-c3cncc(Cl)c3)c2n1C[C@H]1CC[C@H](C)CC1` (single isomer, unassigned) [Example 23.89, 5-{6-(5-chloropyridin-3-yl)-8-[1-(2,6-difluorophenyl)-1-methoxyethyl]-7-[(trans-4-methylcyclohexyl)methyl]-7H-purin-2-yl}-1,3,4-oxadiazol-2(3H)-one] was 5.12 nM; that for `COC(C)(c1c(F)cccc1F)c1nc2nc(-c3noc(=O)[nH]3)nc(-c3cncc(Cl)c3)c2n1C[C@H]1CC[C@H](C)CC1` (single isomer, unassigned) [Example 23.93, 3-{6-(5-chloropyridin-3-yl)-8-[1-(2,6-difluorophenyl)-1-methoxyethyl]-7-[(trans-4-methylcyclohexyl)methyl]-7H-purin-2-yl}-1,2,4-oxadiazol-5(4H)-one] was 0.452 nM; that for `CC1COCCC1(F)c1nc2nc(-c3noc(=O)[nH]3)nc(-c3cncc(Cl)c3)c2n1C[C@H]1CC[C@H](C)CC1` (single isomer, unassigned) [Example 23.94, 3-{6-(5-chloropyridin-3-yl)-8-(4-fluoro-3-methyltetrahydro-2H-pyran-4-yl)-7-[(trans-4-methylcyclohexyl)methyl]-7H-purin-2-yl}-1,2,4-oxadiazol-5(4H)-one] was 23.4 nM.
`CC1COCCC1(F)c1nc2nc(-c3noc(=O)[nH]3)nc(-c3cncc(Cl)c3)c2n1C[C@H]1CC[C@H](C)CC1` (single isomer, unassigned) [Example 23.95, 3-{6-(5-chloropyridin-3-yl)-8-(4-fluoro-3-methyltetrahydro-2H-pyran-4-yl)-7-[(trans-4-methylcyclohexyl)methyl]-7H-purin-2-yl}-1,2,4-oxadiazol-5(4H)-one] registered an IC50 of 4.33 nM.
Regarding `CC(F)(c1ncccc1F)c1nc2nc(-c3noc(=O)[nH]3)nc(-c3cncc(Cl)c3)c2n1C[C@H]1CC[C@H](C)CC1` (single isomer, unassigned) [Example 23.98, 3-{6-(5-chloropyridin-3-yl)-8-[1-fluoro-1-(3-fluoropyridin-2-yl)ethyl]-7-[(trans-4-methylcyclohexyl)methyl]-7H-purin-2-yl}-1,2,4-oxadiazol-5(4H)-one], the IC50 was found to be 9.74 nM.
Still for that read-out and setting: the value for `CC(F)(c1ncccc1F)c1nc2nc(-c3noc(=O)[nH]3)nc(-c3cncc(Cl)c3)c2n1C[C@H]1CC[C@H](C)CC1` (single isomer, unassigned) [Example 23.99, 3-{6-(5-chloropyridin-3-yl)-8-[1-fluoro-1-(3-fluoropyridin-2-yl)ethyl]-7-[(trans-4-methylcyclohexyl)methyl]-7H-purin-2-yl}-1,2,4-oxadiazol-5(4H)-one] was 0.315 nM.

Another experiment has as its target HDM2 (Homo sapiens (Human), UniProt Q00987). The experiment in a line: FRET assay (FRET IC50 of Tables 1-11). In kind it is binding.
Conditions: not given
Compound “6-{[(1R)-1-cyclopropylethyl]ammo}-8-phenyl-7-[4-(trifluoromethyl)benzyl]-7H-purine-2-carboxylic acid [Example 1.96]” registered an IC50 of 371 nM.

The values are drawn from patent US9540377B2, “2,6,7,8 substituted purines as HDM2 inhibitors” (Merck Sharp & Dohme Corp., priority 2013, dated 2017).
